Test results taken from PubChem BioAssay AID602217 (Sanford-Burnham Center for Chemical Genomics, 2012).
Activity calls are given as the source filed them.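 How the source made its calls: active means IC50 at or below a set limit; inactive means the rest.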

What follows are compounds tested on HL-1 cardiomyocytes, 2-deoxyglucose injury, ATPLite luminescence, 2 h (assay: protection of HL-1 cardiomyocytes from 2-deoxyglucose injury, dose response, cell-based, ATPLite luminescence (AID 602217);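 further: cells kept in glucose-free DMEM during the 2-deoxyglucose injury; potency of protection where actives preserve ATP signal against 2-deoxyglucose stress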).

Structure (SMILES) | IC50
COc1cc(NC(=O)c2ccco2)c(OC)cc1NC(=O)c1cc(OC)c(OC)c(OC)c1 | 18.1 µM
COc1ccccc1NC(=O)c1cc(-c2cc(OC)c(OC)c(OC)c2)nc2ccccc12 | 14.3 µM
C[C@H](NC(=O)c1nc[nH]c1C(=O)NCC(=O)OCc1ccccc1)c1ccccc1 | > 79 µM (inactive)
CC(=O)c1cccc(-c2cnc3c(NC=O)cc(-c4ccccc4F)cn23)c1 | > 79 µM (inactive)
CCN(CC)C(=O)c1[nH]cnc1C(=O)NCC(=O)OCc1ccccc1 | 69.9 µM (inactive)
COc1ccc(C(C(=O)NCc2ccccc2)N(Cc2ccco2)C(=O)c2snc(C(N)=O)c2N)cc1 (stereo not drawn) | 39.5 µM (inactive)
COc1ccc(-c2cc(C(=O)N(C)Cc3nc4ccccc4c(=O)[nH]3)c3ccccc3n2)cc1OC | 21.9 µM (inactive)
CNC(=O)c1ccc(-c2sc3nc(N4CCOCC4)c4c(c3c2N)CC(C)(C)OC4)o1 | 46.1 µM (inactive)
COc1ccc2c(c1OC)C(=O)N1c3ccccc3C(=O)N(c3ccccc3)C21 (stereo not drawn) | 11 µM
CC(C)=NNc1cnnc2ccc([N+](=O)[O-])cc12 | > 79 µM (inactive)
COc1cc(-c2cc(C(=O)Nc3cccc(C(C)=O)c3)c3ccccc3n2)cc(OC)c1OC | 9.9 µM
CCOc1cc(/C=C(\C#N)C(=O)Nc2ccc(S(N)(=O)=O)cc2)ccc1OCCN1CCOCC1 | > 79 µM (inactive)
O=C(COC(=O)c1c2c(nc3ccccc13)/C(=C/c1cccc([N+](=O)[O-])c1)CCC2)NC1CCS(=O)(=O)C1 (stereo not drawn) | > 79 µM (inactive)
N#Cc1c(-c2ccco2)cc(-c2cccnc2)nc1N | 14.6 µM
N#C/C(=C\Nc1ccc2c(c1)OCCO2)c1nc2ccccc2[nH]1 | > 79 µM (inactive)
CCOc1ccc(-n2cc(-c3ccccc3)c3c(N4CCOCC4)ncnc32)cc1 | 7.65 µM
C[C@@H]1CN([C@@H](C)CO)C(=O)c2cc(NC(=O)Nc3ccccc3)ccc2O[C@H]1CN(C)C(=O)Nc1cccc2ccccc12 | > 79 µM (inactive)
COc1cc(-c2cc(C(=O)Nc3ccccc3N3CCOCC3)c3ccccc3n2)cc(OC)c1OC | 13.1 µM
CC(=O)c1ccc(-c2cnc3c(NC=O)cc(-c4cccc(C(=O)N(C)C)c4)cn23)cc1 | > 79 µM (inactive)
COc1ccc(C(=O)Nc2cccc(/C(C)=N/NC(=O)c3ccc([N+](=O)[O-])c(C)c3)c2)cc1OC | 5.18 µM
Nc1c(C(=O)N/N=C/c2cccnc2)oc2nc(-c3ccccc3)cc(-c3ccco3)c12 | > 79 µM (inactive)
CCOC(=O)C1CCN(c2cc3c(cc2NC(=O)c2ccc(OC)c(OC)c2)n(C)c(=O)n3C)CC1 | > 79 µM (inactive)

Structure (SMILES) | IC50
COc1ccccc1CN(C(=O)CNC(=O)c1ccco1)C(C(=O)NCC1CCCO1)c1ccccc1 (stereo not drawn) | 71.3 µM (inactive)
COc1ccc2[nH]c(=O)c(CN(Cc3cccnc3)S(=O)(=O)c3ccccc3F)cc2c1 | 18.2 µM
O=[N+]([O-])c1ccc(Nc2nc(N/N=C/c3cccc(F)c3)nc(N3CCCC3)n2)cc1 | > 79 µM (inactive)
CN(C)S(=O)(=O)c1ccc2[nH]cc(/C=C/c3nc4ccccc4c(=O)n3-c3ccccc3)c2c1 | 5 µM
CC(C)(C)OC(=O)N1CCC(NC(=O)c2nc[nH]c2C(=O)NCC(=O)OCc2ccccc2)CC1 | 25.8 µM (inactive)
NC(=O)c1cc2ccccc2o/c1=N\NC(=O)c1ccc(F)cc1 | > 79 µM (inactive)
CC(=O)Nc1ccc(S(=O)(=O)N(Cc2cccnc2)Cc2cc3ccccc3[nH]c2=O)cc1 | 30.8 µM (inactive)
COc1cc(-c2cc(NC(C)=O)c3ncc(-c4ccc(C(C)=O)cc4)n3c2)cc(OC)c1OC | > 79 µM (inactive)
C=CC[C@@H](CC(=O)NCCO)C(=O)NC[C@H](OC(=O)[C@@H](CC=C)Cc1ccc(F)cc1)c1ccccc1 | 42.7 µM (inactive)
COC(=O)c1cc2ccccn2c2c(C(=O)OC)c(C(=O)OC)cc1-2 | > 79 µM (inactive)
CCn1c(O)c(/C=N/N=C/c2ccccc2)c2ccc(C3=NNC(=O)CC3)cc21 | 18.1 µM
COc1ccc(-c2nn(-c3ccccc3)cc2C(=O)Nc2nccs2)cc1 | 53.5 µM (inactive)
COc1ccc(Nc2nnc(SCc3cc(=O)n4ccsc4n3)s2)cc1 | 0.26 µM
COc1ccc(-n2c(/C=C/c3ccc(O)c(OC)c3)nc3ccccc3c2=O)cc1 | 21.3 µM (inactive)
Cn1c(=O)c2[nH]c(NN=Cc3ccc(Br)cc3)nc2n(C)c1=O | 10.2 µM
COc1cc(-c2cc(C(=O)NCc3ccco3)c3ccccc3n2)cc(OC)c1OC | 31.6 µM (inactive)
Cc1ccc(C=NNc2nc3c([nH]2)c(=O)n(C)c(=O)n3C)cc1 | > 79 µM (inactive)
CC(=O)Nc1cc(-c2ccc(C(=O)NC3CC3)cc2)cn2c(-c3cccc(C(C)=O)c3)cnc12 | 12.7 µM
CC(C)c1ccccc1NC(=O)COC(=O)c1c2c(nc3ccccc13)CCN(Cc1ccccc1)C2 | > 79 µM (inactive)
COc1cc(C(=O)NCC(=O)N/N=C/c2ccc(-c3cccc([N+](=O)[O-])c3)o2)cc(OC)c1OC | > 79 µM (inactive)
CC(=O)Nc1cccc(-c2cc(NC=O)c3ncc(-c4ccc(C(C)=O)cc4)n3c2)c1 | 23.1 µM (inactive)
CCOc1ccccc1NC(=O)c1oc2ccccc2c1NC(=O)C1CCCO1 (stereo not drawn) | > 79 µM (inactive)

Structure (SMILES) | IC50
CN(C(=O)c1sc2nc(N3CCOCC3)c3c(c2c1N)CCCC3)c1ccccc1 | > 79 µM (inactive)
COc1cc(-c2cc(NC(C)=O)c3ncc(-c4cc(OC)c(OC)c(OC)c4)n3c2)cc(OC)c1OC | 6.4 µM
O=C(Nc1ccccc1)c1nc[nH]c1C(=O)NCCNC(=O)c1[nH]cnc1C(=O)Nc1ccccc1 | 4.82 µM
CC(=O)c1cccc(Nc2nc3ccccc3n3cnnc23)c1 | > 79 µM (inactive)
Cc1cc(C)c2c(N)c(C(=O)N/N=C/c3cccnc3)sc2n1 | > 79 µM (inactive)
COc1cc(-c2cc(NC=O)c3ncc(-c4ccc(C(C)=O)cc4)n3c2)cc(OC)c1OC | > 79 µM (inactive)
O=S(=O)(c1ccccc1)N1CCN(c2nc(-c3cccnc3)nc3ccccc23)CC1 | 51.6 µM (inactive)
CC12C=CC(=O)CC1CCC1C2CCC2(C)C(O)C(O)CC12 (stereo not drawn) | > 79 µM (inactive)
COc1nc(N/N=C/c2cc3c(cc2Br)OCO3)nc(N2CCOCC2)n1 | > 79 µM (inactive)
O=C(Nc1ccccc1)c1nc[nH]c1C(=O)NCCCCCCNC(=O)c1[nH]cnc1C(=O)Nc1ccccc1 | > 79 µM (inactive)
Cc1nc(N2CCN(c3ccccn3)CC2)c2c(C)c(C(=O)Nc3ccc(F)cc3)sc2n1 | > 79 µM (inactive)
O=C(Nc1cccc(NC(=O)c2ccc([N+](=O)[O-])o2)c1)c1ccco1 | > 79 µM (inactive)
Cc1cc(N)n(-c2nc(-c3cccnc3)nc3ccccc23)n1 | > 79 µM (inactive)
Cc1ccc(C(C(=O)NCc2ccccc2)N(Cc2ccco2)C(=O)c2snc(C(N)=O)c2N)o1 (stereo not drawn) | 23.9 µM (inactive)
COc1cc(C(=O)N/N=C/c2sc(N3CCOCC3)nc2-c2ccccc2)cc(OC)c1OC | 22.6 µM (inactive)
COc1cccc(Nc2nc3ccccc3n3cnnc23)c1 | > 79 µM (inactive)
COc1cccc(-c2cnc3c(NC=O)cc(-c4ccc(O)c(OC)c4)cn23)c1 | 27.4 µM (inactive)
COC(=O)c1cc2c(-c3ccccc3)cc3ccccn3c-2c1C(=O)OC | > 79 µM (inactive)
NC(=O)COc1ccc2oc(=O)cc(-c3cc4ccccc4o3)c2c1 | > 79 µM (inactive)
COc1ccc(CCNC(=O)C(=O)NCC2CCCN2S(=O)(=O)c2ccccc2)cc1OC (stereo not drawn) | 45.9 µM (inactive)
COc1ccc(COc2cc(-c3cccc(OC)c3)nc3ccc(NC(=O)c4cccnc4)cc23)cc1 | 5.96 µM
COc1cc2[nH]c(=O)n3nc(-c4ccccc4)nc3c2cc1OC | 35.3 µM (inactive)

Structure (SMILES) | IC50
COc1ccc(/C=N/NC(=O)c2ccc(COc3cccc4cccnc34)cc2)cc1OC | > 79 µM (inactive)
COc1ccc(NC(=O)c2cc(-c3ccccn3)nc3ccccc23)cc1S(=O)(=O)N(C)C | 20.5 µM (inactive)
COc1ccc(-c2cc(-c3nnc(COC(=O)C4CC4C)o3)c3ccccc3n2)cc1OC (stereo not drawn) | > 79 µM (inactive)
NC(=O)c1nsc(C(=O)N(c2ccccc2F)C(C(=O)NCc2ccc(F)cc2)c2ccc(O)cc2)c1N (stereo not drawn) | 9.17 µM
Brc1cc2c(cc1/C=N/Nc1nc(N3CCCC3)nc(N3CCOCC3)n1)OCO2 | > 79 µM (inactive)
COCCCN(Cc1ccco1)C(=O)Cn1ncc2c([nH]c3ccccc32)c1=O | 41.4 µM (inactive)
COc1ccc(-c2cc(NC(C)=O)c3ncc(-c4cccc(C(C)=O)c4)n3c2)cc1OC | > 79 µM (inactive)
COc1ccc(-c2cc(C(=O)N(C)Cc3ccc(OC)c(OC)c3OC)c3ccccc3n2)cc1OC | 32.1 µM (inactive)
C=CCn1cnc2c(c1=O)c1nc3ccccc3nc1n2/N=C/c1cc(OC)c(OC)c(OC)c1 | 5.93 µM
CCOc1ccc2nc(NC(=O)CN3CCC(n4nnc5cc(F)ccc54)CC3)sc2c1 | 9.48 µM
CC(C)(C)NC(=O)c1cc(NC(=O)c2cccs2)cc(NC(=O)c2cccs2)c1 | > 79 µM (inactive)
COc1ccc(-c2csc(NC(=O)c3cccc(N4C(=O)CCC4=O)c3)n2)cc1OC | 29.9 µM (inactive)
CC1Nc2ncnc(N3CCN(c4ccccc4)CC3)c2N(Cc2ccc(Cl)cc2)C1=O (stereo not drawn) | 1.95 µM
CNC(=O)COC(=O)/C=C/c1cn(-c2ccccc2)nc1-c1ccc(C)o1 | > 79 µM (inactive)
Cc1cc(C)c(C)c(S(=O)(=O)N2CCN(C(=O)c3cc(=O)[nH]c4ccccc34)CC2)c1C | 23.7 µM (inactive)
Cc1ccc(-n2cc(-c3ccccc3)c3c(N4CCOCC4)ncnc32)cc1 | 7.85 µM
COc1ccc(C(C(=O)NC2CCCC2)N(C(=O)c2snc(C(N)=O)c2N)c2cccc(O)c2)cc1 (stereo not drawn) | 40.9 µM (inactive)
CCOC(=O)C(Cc1ccc(NC(=O)/C(=C/c2ccc(OC(C)=O)cc2)NC(C)=O)cc1)N1C(=O)c2ccccc2C1=O (stereo not drawn) | 52.5 µM (inactive)
COc1ccccc1NC(=O)c1cc(-c2ccc(OC)c(OC)c2)nc2ccccc12 | 15.6 µM
COc1cccc(CN(C)C(=O)C(Cc2ccccc2)NC(=O)c2ccccc2)c1OC (stereo not drawn) | > 79 µM (inactive)
CCOC(=O)C1CCN(c2cc3c(cc2NC(=O)c2ccccc2Cl)n(C)c(=O)n3C)CC1 | > 79 µM (inactive)
CCOC(=O)c1ccc(NC(=O)c2nc[nH]c2C(=O)NCCCCCNC(=O)OC(C)(C)C)cc1 | > 79 µM (inactive)
